Assay results taken from patent US20120232062A1, “AZAINDAZOLES TO TREAT FLAVIVIRIDAE VIRUS INFECTION” (EIGER BIOPHARMACEUTICALS, INC., priority 2009, published 2012).
Like-named read-outs stand apart in the source and are kept apart here.

Assays:
[1] = Liver microsome stability, mouse; format: in vitro ADME, CD-1 mouse
Source text: (§1) Metabolic stability assays are designed to measure the stability of a test compound in a variety of assay matrices from human and animal species. From a metabolism perspective, a drug would be relatively stable, have a small first-pass effect, and maintain an effective concentration in blood for a reasonable period of time. A microsomal preparation from the liver contains all CYP isozymes and other membrane-bound drug metabolizing enzymes which are responsible for the metabolism for the majority of drugs in humans. Metabolic stability in liver microsomes can determine half-life (T1/2) and intrinsic clearance (Clint). The determination of Clint may be useful to determine whether metabolism is the major elimination pathway when it is compared to total body clearance in vivo. For high metabolic stability in liver microsomes: […] Human, Sprague Dawley rat, and CD-1 mouse liver microsome samples were purchased from BD Gentest. An in vitro metabolic stability assay suitable for use in predicting first pass metabolism of the compounds useful in the methods of the invention is described in this example. […] 6 mM NADPH in 0.1 M K-phosphate buffer is prepared by dissolving 25.1 mg of NADPH tetrasodium salt in 5 mL of K-phosphate buffer. […] The plate is pre-incubated at 37° C. for 10 minutes. 15 μL of NADPH stock solution (6 mM) is added to the wells designated for Time 60 and timed. At 30 min, 15 min, and 5 min, 15 μL of NADPH stock solution (6 mM) is added to the wells. At the end of incubation, 135 μL of ACN containing IS is added to all the wells (60 min, 30 min, 15 min, 5 min and 0 min). Then 15 μL of NADPH stock solution (6 mM) is added to the wells designated as Time 0.

[2] = Liver microsome stability, rat; format: in vitro ADME, Sprague Dawley rat
Source text: as §1

HCV genotype 1b = test: HCV 1b replicon luciferase assay; format: cell-based; conditions: Table 1, Huh7 HCV 1b replicon, luciferase reporter, 48 hours, read-out: 1b EC50
Method in brief: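 Huh7 cells carrying a genotype 1b replicon with stable luciferase reporter, 10k cells/well, were treated 48 h at 37 °C with 10-point 5-fold dilutions from 25 μM (0.1% DMSO), in duplicate. Replication was read as Steady-Glo luminescence.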

[3] = Liver microsome stability, human; format: in vitro ADME
Source text: as §1

[4] = Caco-2 permeability testing; format: in vitro ADME, human; conditions: human, 90 min; for Papp A→B at 90 min, 10 µM: Caco-2, pH 7.4, Caco-2, A-B, read-out: Permeability (second figure of Efflux/permeability), Papp (A-B); for Papp B→A at 90 min, 10 µM: Caco-2, pH 7.4, Caco-2, B-A, read-out: Efflux (first figure of Efflux/permeability), Papp (B-A)
Source text: Intestinal epithelium permeability is a critical characteristic that determines the rate and extent of human absorption and affects bioavailability of a drug candidate. Poor intestinal permeability leads to limited absorption. Generally, higher absorption is preferred. The Caco-2 cell line is a human colon adeno-carcinoma cell line that resembles the epithelial lining of the human small intestine. Several transport proteins that are expressed in human intestinal epithelium are also expressed in the Caco-2 cell model. Some transporter proteins are efflux systems which mediate the secretion of compounds from inside the cell back to the apical lumen (representative of the intestinal lumen), limiting overall absorption. In a permeability assay, the apparent permeability coefficient is measured between the apical to basolateral sides of a cell monolayer, Papp (A-B), and the basolateral to the apical side, Papp (B-A). Papp (A-B)<2×10^−6 cm/s is predictive of low permeability to the basolateral side, 2×10^−6 cm/s<Papp (A-B)<20×10^−6 cm/s is predictive of medium permeability, and Papp (A-B)>20×10^−6 cm/s is predictive of high permeability. In the B-A permeability assay, Papp (B-A) is measured and compounds evaluated for efflux potential. Together, these assay results are reported as a ratio of Papp (B-A) to Papp (A-B). Papp (B-A)/Papp (A-B)>3 are likely to be transported by one of the efflux systems, and have poor absorption. Papp (B-A)/Papp (A-B)<3 are likely to show reasonable intestinal absorption. An in vitro drug absorption assay suitable for use in predicting intestinal absorption of the compounds useful in the methods of the invention is described in this example. The embodiments of this assay described in this example were developed by Shanghai ChemPartner Co., Ltd., a corporation of China with its principal office located at 720 Cailun Road, Building No. 3, Shanghai 201203, China.
Caco-2 (ATCC, catalog No. HTB-37™) cells are cultured in growth medium (MEM+10% FBS+1% NEAA). The growth medium is prepared by adding 50 mL FBS and 5 mL NEAA to 445 mL of MEM or by adjusting the final volume according to actual needs. Trypsin-EDTA (Invitrogen, Cat #25200-072) is also used.
Hanks Balanced Salt Solution (HBSS, Invitrogen, Cat #14025-092) with 25 mM HEPES, pH 7.4, HBSS buffer with 0.2% DMSO (50 μL DMSO into 25 ml HBSS buffer), and HBSS buffer with 0.4% DMSO (100 μL DMSO into 25 ml HBSS buffer) are used.
10 mM stock solutions of a compound is prepared in DMSO and Lucifer Yellow in assay buffer using the formula (Actual Weight/Molecular Weight)/mL solvent=10 mM. Erythromycin, Metoprolol, and Atenolol are used as reference compounds. Donor solutions (10 μM for compounds and 5 μM for Lucifer Yellow) are prepared. For A-B, 4 μL of 10 mM compound stock solution and 2 μL of 10 mM Lucifer Yellow stock solution are loaded into 4 mL of HBSS buffer, and centrifuged (5 min, 4000 rpm) to precipitate undissolved particles. Supernatants are collected for compound dosing. For B-A, 4 μL (compounds) of 10 mM compound stock solution is added to 4 mL HBSS buffer with 0.2% DMSO, and centrifuged (5 min, 4000 rpm) to precipitate undissolved particles. Supernatants are collected for compound dosing.
Receiver solutions are prepared. For A-B, the solution is HBSS buffer with 0.4% DMSO. For B-A, 2 μL of 10 mM Lucifer Yellow stock solution is added to 4 mL of HBSS buffer with 0.2% DMSO. Compound solutions are prepared for standard curve (3 μM/1 μM/0.2 μM/0.04 μM/0.01 μM/0.005 μM):
1× solution: 3 μL of 20× solution (0.1-60 μM)+57 μL 0.4% DMSO HBSS+60 μL acetonitrile (ACN) with internal standard (IS, 200 ng/mL Osalmid). The assay was performed as described below
Stock cultures are maintained in MEM+10% FBS+1% NEAA, grown in 75 cm^2 tissue culture treated flasks and split (passed) 2 times weekly to maintain desired confluence. For maintenance passage, trypsinized cells are routinely distributed into new flasks at a standard passage ratio of 1:4. […]

SMILES | mouse liver microsome (MLM), % parent remaining ([1]; after 15 min) [% parent remaining] | mouse liver microsome (MLM), % parent remaining ([1]; after 30 min) [% parent remaining] | mouse liver microsome (MLM), % parent remaining ([1]; after 60 min) [% parent remaining] | rat liver microsome (RLM), % parent remaining ([2]; after 15 min) [% parent remaining] | rat liver microsome (RLM), % parent remaining ([2]; after 30 min) [% parent remaining] | rat liver microsome (RLM), % parent remaining ([2]; after 60 min) [% parent remaining] | EC50 (HCV genotype 1b; Hepatitis C virus, Huh-7, 48 h) [nM] | human liver microsome (HLM, % parent remaining) ([3]; after 15 min) [% parent remaining] | human liver microsome (HLM, % parent remaining) ([3]; after 30 min) [% parent remaining] | human liver microsome (HLM, % parent remaining) ([3]; after 60 min) [% parent remaining] | Papp A→B at 90 min, 10 µM [4] [×10⁻⁶ cm/s] | Papp B→A at 90 min, 10 µM [4] [×10⁻⁶ cm/s] | EC50 (HCV genotype 1b) [nM]
CC1CCC(C)N1CCOCc1nn(C)c2nc(N3CCCCCC3)ccc12 (stereo not shown) [compound 1540] | 34 | 18 | 10 | 17 | 2 | 4 | 2700 | 17 | 9 | 4 | – | – | –
CC1CCCN1CCCc1nn(C)c2nc(N3CCCCCCC3)ccc12 (stereo not shown) [compound 1452] | 1.7 | 0.9 | 0.3 | 2 | 0.8 | 0.5 | 1200 | 32 | 13 | 3 | – | – | –
CC1CCCCN1CCOCc1nn(C)c2nc(N3CCCCCC3)ccc12 (stereo not shown) [compound 1549] | 27 | 17 | 13 | 52 | 31 | 17 | 4000 | 16 | 11 | 13 | – | – | –
Cn1nc(C(=O)NC2CCN(CCN3CCCCC3CO)CC2)c2ccc(N3CCCCCC3)nc21 (stereo not shown) [compound 1559] | 54 | 27 | 5 | 57 | 31 | 8 | 1800 | 65 | 32 | 7 | – | – | –
Cn1nc(C(=O)NCc2cccs2)c2cc(N3CCCCC3)cnc21 [compound 1146] | – | – | – | – | – | – | 7500 | – | – | – | 22 | 21 | –
COc1ccc(CN2CCC(NC(=O)c3nn(C)c4nc(N5CCCCCC5)ccc34)CC2)cc1 [compound 1116] | – | – | – | – | – | – | – | – | – | – | 0.5 | 0.3 | 1300
CCC(CC)Oc1ccc2c(C(=O)NC3CCN(CC4CCCCC4)CC3)nn(C)c2n1 [compound 1074] | – | – | – | – | – | – | 880 | – | – | – | 6.6 | 1.6 | –
CC1CCC(C)N1CCN1CCC(NC(=O)c2nn(C)c3nc(N4CCCCCC4)ccc23)CC1 (stereo not shown) [compound 1562] | – | – | – | – | – | – | 1900 | – | – | – | 6.7 | 6.3 | –
CCCN1CCC(NC(=O)c2nn(C)c3nc(NC4CCCCCCC4)ccc23)CC1 [compound 1475] | – | – | – | – | – | – | 830 | – | – | – | 5.9 | 6.3 | –
